Like-named read-outs stand apart in the source and are kept apart here.
System: RBCs
Procedure: RBC binding ranked by MESF (molecules of equivalent soluble fluorescence), or intensity of fluorescent signal measured when RBCs were incubated with a given concentration of peptide.
High=MESF value>1000 fluorescent units
Medium=MESF Value from 300 to 1000 fluorescent units
Low=MESF Value from 15 to 300 fluorescent units

[1] = Table 3, structurally-diverse all-D-peptides

Substance	Classification of RBC binding properties (MESF) (Table 2, 1a analogs)	Classification of RBC binding properties (MESF) [1]
H-phe-trp-ser-pro-trp-ala-met-met-tyr-lys-Gly-Gly-Gly-lys(Biotin)-NH2 [Peptide 2i]	Low (MESF Value from 15 to 300 fluorescent units)	–
H-phe-trp-tyr-pro-trp-ala-met-met-tyr-lys-Gly-Gly-Gly-lys(Biotin)-NH2 [Peptide 2j]	Low (MESF Value from 15 to 300 fluorescent units)	–
H-phe-trp-tyr-val-his-thr-thr-Gly-trp-lys-Gly-Gly-Gly-lys(Biotin)-NH2 [Peptide 3j]	–	Does Not Bind (MESF Value below 15 fluorescent units)
H-phe-trp-val-pro-phe-trp-trp-lys-thr-lys-Gly-Gly-Gly-lys(Biotin)-NH2 [Peptide 3d]	–	Low (MESF Value from 15 to 300 fluorescent units)
H-phe-tyr-tyr-pro-trp-pro-val-thr-tyr-lys-Gly-Gly-Gly-lys(Biotin)-NH2 [Peptide 3k]	–	Does Not Bind (MESF Value below 15 fluorescent units)
H-pro-his-his-pro-phe-ala-leu-phe-leu-lys-Gly-Gly-Gly-lys(Biotin)-NH2 [Peptide 3q]	–	Medium (MESF Value from 300 to 1000 fluorescent units)
H-pro-phe-tyr-thr-tyr-his-trp-tyr-ser-lys-Gly-Gly-Gly-lys(Biotin)-NH2 [Peptide 3p]	–	Does Not Bind (MESF Value below 15 fluorescent units)
H-ser-Gly-val-asp-thr-tyr-leu-thr-his-lys-Gly-Gly-Gly-lys(Biotin)-NH2 [Peptide 3r]	–	Medium (MESF Value from 300 to 1000 fluorescent units)
H-ser-trp-his-pro-val-trp-Gly-trp-leu-lys-Gly-Gly-Gly-lys(Biotin)-NH2 [Peptide 3g]	–	Low (MESF Value from 15 to 300 fluorescent units)
H-trp-tyr-leu-pro-pro-leu-trp-his-ala-lys-Gly-Gly-Gly-lys(Biotin)-NH2 [Peptide 3u]	–	Does Not Bind (MESF Value below 15 fluorescent units)
H-trp-val-pro-Gly-phe-trp-tyr-his-tyr-lys-Gly-Gly-Gly-lys(Biotin)-NH2 [Peptide 3t]	–	Low (MESF Value from 15 to 300 fluorescent units)
H-tyr-phe-leu-tyr-leu-pro-tyr-his-thr-lys-Gly-Gly-Gly-lys(Biotin)-NH2 [Peptide 3v]	–	Low (MESF Value from 15 to 300 fluorescent units)
H-tyr-trp-val-pro-met-trp-val-his-val-lys-Gly-Gly-Gly-lys(Biotin)-NH2 [Peptide 3w]	–	Low (MESF Value from 15 to 300 fluorescent units)
H-val-phe-his-pro-phe-trp-Gly-tyr-phe-lys-Gly-Gly-Gly-lys(Biotin)-NH2 [Peptide 3s]	–	Does Not Bind (MESF Value below 15 fluorescent units)

— US20230173086A1, “PEPTIDE CONJUGATES AND THERAPEUTIC AGENTS HAVING IMPROVED PHARMACOLOGICAL AND PHARMACOKINETIC PROPERTIES” (Resolute Bio, Inc., priority 2021, published 2023)
